The NIST ThermoML archive (doi:10.1021/je400659p)
± gives the expanded uncertainty stated by the source.

Columns and labels:
[1] = xn = mol fraction of the nth substance listed; details: 101 kPa, Liquid, Vibrating tube method
[2] = refractive index (Na D-line) (dimensionless); xn = mol fraction of the nth substance listed; details: 101 kPa, Liquid, Standard Abbe refractometry
[3] = refractive index (Na D-line) (dimensionless); details: 101.33 kPa, Liquid, Standard Abbe refractometry
[4] = 101 kPa, Liquid, Vibrating tube method

## OCCO [1,2-ethanediol] + CCn1cc[n+](C)c1.F[B-](F)(F)F
[1]; 293.15 K, x2 = 0
  mass density: 1113.45 ± 0.16 kg/m3
[1]; 303.15 K, x2 = 0
  mass density: 1106.45 ± 0.16 kg/m3
[1]; 313.15 K, x2 = 0
  mass density: 1099.38 ± 0.16 kg/m3
[1]; 323.15 K, x2 = 0
  mass density: 1092.24 ± 0.15 kg/m3
[1]; 333.15 K, x2 = 0
  mass density: 1085 ± 0.15 kg/m3
[1]; 343.15 K, x2 = 0
  mass density: 1077.65 ± 0.15 kg/m3
[1]; 353.15 K, x2 = 0
  mass density: 1070.17 ± 0.15 kg/m3
[2]; 298.15 K, x2 = 0
  refractive index: 1.43 ± 0.0004
[2]; 303.15 K, x2 = 0
  refractive index: 1.4285 ± 0.0004
[2]; 313.15 K, x2 = 0
  refractive index: 1.4258 ± 0.0004
[2]; 323.15 K, x2 = 0
  refractive index: 1.4229 ± 0.0004

## OCCO [1,2-ethanediol] + CCCCn1cc[n+](C)c1.F[B-](F)(F)F
[2]; 298.15 K, x2 = 0
  refractive index: 1.43 ± 0.0004
[2]; 303.15 K, x2 = 0
  refractive index: 1.4285 ± 0.0004
[2]; 313.15 K, x2 = 0
  refractive index: 1.4258 ± 0.0004
[2]; 323.15 K, x2 = 0
  refractive index: 1.4229 ± 0.0004

## CCn1cc[n+](C)c1.F[B-](F)(F)F [1-ethyl-3-methylimidazolium tetrafluoroborate]
[3]; 298.15 K
  refractive index: 1.4111 ± 0.0005
[3]; 303.15 K
  refractive index: 1.41 ± 0.0005
[3]; 313.15 K
  refractive index: 1.4073 ± 0.0005
[3]; 323.15 K
  refractive index: 1.4051 ± 0.0005
[4]; 293.15 K
  mass density: 1290.63 ± 1.5 kg/m3
[4]; 298.15 K
  mass density: 1286.82 ± 1.5 kg/m3
[4]; 303.15 K
  mass density: 1283.02 ± 1.5 kg/m3
[4]; 313.15 K
  mass density: 1275.45 ± 1.4 kg/m3
[4]; 323.15 K
  mass density: 1267.97 ± 1.4 kg/m3
[4]; 333.15 K
  mass density: 1260.55 ± 1.4 kg/m3
[4]; 343.15 K
  mass density: 1253.18 ± 1.4 kg/m3
[4]; 353.15 K
  mass density: 1245.87 ± 1.4 kg/m3

## CCCCn1cc[n+](C)c1.F[B-](F)(F)F [1-butyl-3-methylimidazolium tetrafluoroborate] + C1COCCO1
[1]; 293.15 K, x1 = 1
  mass density: 1204.44 ± 0.4 kg/m3
[1]; 298.15 K, x1 = 1
  mass density: 1200.89 ± 0.39 kg/m3
[1]; 303.15 K, x1 = 1
  mass density: 1197.34 ± 0.39 kg/m3
[1]; 313.15 K, x1 = 1
  mass density: 1190.27 ± 0.39 kg/m3
[1]; 323.15 K, x1 = 1
  mass density: 1183.24 ± 0.38 kg/m3
[1]; 333.15 K, x1 = 1
  mass density: 1176.25 ± 0.37 kg/m3
[1]; 343.15 K, x1 = 1
  mass density: 1169.32 ± 0.37 kg/m3
[1]; 353.15 K, x1 = 1
  mass density: 1162.44 ± 0.36 kg/m3
[2]; 298.15 K, x1 = 1
  refractive index: 1.4215 ± 0.0004
[2]; 303.15 K, x1 = 1
  refractive index: 1.4202 ± 0.0004
[2]; 313.15 K, x1 = 1
  refractive index: 1.4179 ± 0.0004
[2]; 323.15 K, x1 = 1
  refractive index: 1.4153 ± 0.0004

## C1COCCO1 [1,4-dioxane]
[3]; 298.15 K
  refractive index: 1.4205 ± 0.0004
[3]; 303.15 K
  refractive index: 1.4171 ± 0.0004
[3]; 313.15 K
  refractive index: 1.4112 ± 0.0004
[3]; 323.15 K
  refractive index: 1.4063 ± 0.0004
[4]; 293.15 K
  mass density: 1033.57 ± 0.26 kg/m3
[4]; 298.15 K
  mass density: 1027.92 ± 0.25 kg/m3
[4]; 303.15 K
  mass density: 1022.27 ± 0.25 kg/m3
[4]; 313.15 K
  mass density: 1010.91 ± 0.24 kg/m3
[4]; 323.15 K
  mass density: 999.49 ± 0.23 kg/m3
[4]; 333.15 K
  mass density: 987.97 ± 0.23 kg/m3
[4]; 343.15 K
  mass density: 976.37 ± 0.23 kg/m3
[4]; 353.15 K
  mass density: 964.63 ± 0.23 kg/m3

## CCCCn1cc[n+](C)c1.F[B-](F)(F)F [1-butyl-3-methylimidazolium tetrafluoroborate] + OCCO
[2]; 298.15 K, x1 = 0.0895
  refractive index: 1.4276 ± 0.0004
[2]; 298.15 K, x1 = 0.1758
  refractive index: 1.4257 ± 0.0004
[2]; 298.15 K, x1 = 0.3578
  refractive index: 1.4231 ± 0.0004
[2]; 298.15 K, x1 = 0.4397
  refractive index: 1.4224 ± 0.0004
[2]; 298.15 K, x1 = 0.6482
  refractive index: 1.4217 ± 0.0004
[2]; 298.15 K, x1 = 0.8121
  refractive index: 1.4216 ± 0.0004
[2]; 298.15 K, x1 = 1
  refractive index: 1.4215 ± 0.0004
[2]; 303.15 K, x1 = 0.0895
  refractive index: 1.4258 ± 0.0004
[2]; 303.15 K, x1 = 0.1758
  refractive index: 1.4239 ± 0.0004
[2]; 303.15 K, x1 = 0.3578
  refractive index: 1.4216 ± 0.0004
[2]; 303.15 K, x1 = 0.4397
  refractive index: 1.4211 ± 0.0004
[2]; 303.15 K, x1 = 0.6482
  refractive index: 1.4205 ± 0.0004
[2]; 303.15 K, x1 = 0.8121
  refractive index: 1.4204 ± 0.0004
[2]; 303.15 K, x1 = 1
  refractive index: 1.4202 ± 0.0004
[2]; 313.15 K, x1 = 0.0895
  refractive index: 1.4231 ± 0.0004
[2]; 313.15 K, x1 = 0.1758
  refractive index: 1.4212 ± 0.0004
[2]; 313.15 K, x1 = 0.3578
  refractive index: 1.4188 ± 0.0004
[2]; 313.15 K, x1 = 0.4397
  refractive index: 1.4182 ± 0.0004
[2]; 313.15 K, x1 = 0.6482
  refractive index: 1.4178 ± 0.0004
[2]; 313.15 K, x1 = 0.8121
  refractive index: 1.4179 ± 0.0004
[2]; 313.15 K, x1 = 1
  refractive index: 1.4179 ± 0.0004
[2]; 323.15 K, x1 = 0.0895
  refractive index: 1.4203 ± 0.0004
[2]; 323.15 K, x1 = 0.1758
  refractive index: 1.4184 ± 0.0004
[2]; 323.15 K, x1 = 0.3578
  refractive index: 1.4159 ± 0.0004
[2]; 323.15 K, x1 = 0.4397
  refractive index: 1.4154 ± 0.0004
[2]; 323.15 K, x1 = 0.6482
  refractive index: 1.415 ± 0.0004
[2]; 323.15 K, x1 = 0.8121
  refractive index: 1.4152 ± 0.0004
[2]; 323.15 K, x1 = 1
  refractive index: 1.4153 ± 0.0004

## C1COCCO1 [1,4-dioxane] + CCn1cc[n+](C)c1.F[B-](F)(F)F
[1]; 293.15 K, x2 = 0
  mass density: 1033.57 ± 0.26 kg/m3
[1]; 298.15 K, x2 = 0
  mass density: 1027.92 ± 0.25 kg/m3
[1]; 303.15 K, x2 = 0
  mass density: 1022.27 ± 0.25 kg/m3
[1]; 313.15 K, x2 = 0
  mass density: 1010.91 ± 0.24 kg/m3
[1]; 323.15 K, x2 = 0
  mass density: 999.49 ± 0.23 kg/m3
[1]; 333.15 K, x2 = 0
  mass density: 987.97 ± 0.23 kg/m3
[1]; 343.15 K, x2 = 0
  mass density: 976.37 ± 0.23 kg/m3
[1]; 353.15 K, x2 = 0
  mass density: 964.63 ± 0.23 kg/m3
[2]; 298.15 K, x2 = 0
  refractive index: 1.4205 ± 0.0004
[2]; 303.15 K, x2 = 0
  refractive index: 1.4171 ± 0.0004
[2]; 313.15 K, x2 = 0
  refractive index: 1.4112 ± 0.0004
[2]; 323.15 K, x2 = 0
  refractive index: 1.4063 ± 0.0004

## CCCCn1cc[n+](C)c1.F[B-](F)(F)F [1-butyl-3-methylimidazolium tetrafluoroborate]
[3]; 298.15 K
  refractive index: 1.4215 ± 0.0004
[3]; 303.15 K
  refractive index: 1.4202 ± 0.0004
[3]; 313.15 K
  refractive index: 1.4179 ± 0.0004
[3]; 323.15 K
  refractive index: 1.4153 ± 0.0004
[4]; 293.15 K
  mass density: 1204.44 ± 0.4 kg/m3
[4]; 298.15 K
  mass density: 1200.89 ± 0.39 kg/m3
[4]; 303.15 K
  mass density: 1197.34 ± 0.39 kg/m3
[4]; 313.15 K
  mass density: 1190.27 ± 0.39 kg/m3
[4]; 323.15 K
  mass density: 1183.24 ± 0.38 kg/m3
[4]; 333.15 K
  mass density: 1176.25 ± 0.37 kg/m3
[4]; 343.15 K
  mass density: 1169.32 ± 0.37 kg/m3
[4]; 353.15 K
  mass density: 1162.44 ± 0.36 kg/m3

## OCCO [1,2-ethanediol]
[3]; 298.15 K
  refractive index: 1.43 ± 0.0004
[3]; 303.15 K
  refractive index: 1.4285 ± 0.0004
[3]; 313.15 K
  refractive index: 1.4258 ± 0.0004
[3]; 323.15 K
  refractive index: 1.4229 ± 0.0004
[4]; 293.15 K
  mass density: 1113.45 ± 0.16 kg/m3
[4]; 303.15 K
  mass density: 1106.45 ± 0.16 kg/m3
[4]; 313.15 K
  mass density: 1099.38 ± 0.16 kg/m3
[4]; 323.15 K
  mass density: 1092.24 ± 0.15 kg/m3
[4]; 333.15 K
  mass density: 1085 ± 0.15 kg/m3
[4]; 343.15 K
  mass density: 1077.65 ± 0.15 kg/m3
[4]; 353.15 K
  mass density: 1070.17 ± 0.15 kg/m3
